pIC50: −log10 of the molar value.
Target: T1, human glucagon receptor (Homo sapiens, UniProt P47871)
T1 construct: made in house; host or cells: FreeStyle CHO cells, transient transfection with pMSRαneo/hGCGR; membrane fraction (35,000 rpm pellet)
Assay: Glucagon binding inhibitory activity ([125I]-glucagon binding to glucagon receptor membrane protein)
Conditions: human glucagon receptor membrane protein, [125I]-glucagon, 90 min room temperature
How it was run: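 Receptor source was a membrane fraction of transiently transfected CHO cells bearing human receptor; 90 min room-temperature binding, filtration harvest, scintillation counting.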

T1 sequence (P47871 26-477): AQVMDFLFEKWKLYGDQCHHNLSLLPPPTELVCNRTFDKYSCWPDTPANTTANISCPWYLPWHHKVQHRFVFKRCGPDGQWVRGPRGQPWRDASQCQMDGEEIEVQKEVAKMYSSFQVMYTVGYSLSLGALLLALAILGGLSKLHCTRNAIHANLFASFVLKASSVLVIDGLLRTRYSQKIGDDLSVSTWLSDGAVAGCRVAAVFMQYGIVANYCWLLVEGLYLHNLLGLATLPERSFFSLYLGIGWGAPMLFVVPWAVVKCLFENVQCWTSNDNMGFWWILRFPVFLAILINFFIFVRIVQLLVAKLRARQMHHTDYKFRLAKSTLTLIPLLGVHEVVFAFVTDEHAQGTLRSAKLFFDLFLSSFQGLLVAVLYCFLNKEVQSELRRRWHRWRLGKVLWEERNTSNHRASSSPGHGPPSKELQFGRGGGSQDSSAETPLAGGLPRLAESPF

For `CN(CCC(=O)O)C(=O)c1ccc(NC(c2cn(-c3ccc(OC(F)(F)F)cc3)nc2OCc2ccccc2)C2CCCCC2)cc1` (stereo not shown) [Example 61, 3-{[(4-{[{3-(benzyloxy)-1-[4-(trifluoromethoxy)phenyl]-1H-pyrazol-4-yl}(cyclohexyl)methyl]amino}phenyl)carbonyl](methyl)amino}-propanoic acid], the pIC50 was 6.49.

Same assay, conditions: test compound 10 μM; 0.4% DMSO = 0%, non-labeled glucagon 1 μM = 100%

In the case of `Cc1c(C(Nc2ccc(C(=O)N(C)CCC(=O)O)cc2)C(C)C)oc2ccc(OCc3ccccc3)cc12` (stereo not shown) [Example A86, 3-[{[4-({1-[5-(benzyloxy)-3-methyl-1-benzofuran-2-yl]-2-methylpropyl}amino)phenyl]carbonyl}(methyl)amino]propanoic acid], the “inhibitory rate (%) at 10 μM” value was 89%.

Same assay, conditions: test compound 10 μM; 0.4% DMSO = 0%, non-labeled glucagon 1 μM = 100%; read-out: inhibitory rate (%) at 10 μM

Compared with `Cc1c(C(Nc2ccc(C(=O)N(C)CCC(=O)O)cc2)C2CCCCC2)oc2ccc(OCc3ccncc3)cc12` (stereo not shown) [Example A157, 3-[{[4-({cyclohexyl[3-methyl-5-(pyridin-4-ylmethoxy)-1-benzofuran-2-yl]methyl}amino)phenyl]carbonyl}(methyl)amino]propanoic acid], `Cc1c(C(Nc2ccc(C(=O)N(C)CCC(=O)O)cc2)C2CCCCC2)oc2ccc(Oc3ccc(C#N)cn3)cc12` (stereo not shown) [Example A202, 3-{[(4-{[{5-[(5-cyanopyridin-2-yl)oxy]-3-methyl-1-benzofuran-2-yl}(cyclohexyl)methyl]amino}phenyl)carbonyl](methyl)amino}-propanoic acid] is higher in inhibition at 10 µM: 80% for the first, 86% for the second.

Going from `CCOc1cccc(-n2cc(C(Nc3ccc(C(=O)N(C)CCC(=O)O)cc3)C3CCCCC3)c(CC)n2)c1` (stereo not shown) [Example 83, 3-[{[4-({cyclohexyl[1-(3-ethoxyphenyl)-3-ethyl-1H-pyrazol-4-yl]methyl}amino)phenyl]carbonyl}(methyl)amino]propanoic acid] to `COc1cccc(-n2cc(C(Nc3ccc(C(=O)N(C)CCC(=O)O)cc3)C3CCCCC3)c(C(C)C)n2)c1` (stereo not shown) [Example 79, 3-[{[4-({cyclohexyl[1-(3-methoxyphenyl)-3-(1-methylethyl)-1H-pyrazol-4-yl]methyl}amino)phenyl]carbonyl}(methyl)amino]propanoic acid], the inhibition at 10 µM falls from 78% to 67%.

First: CCc1oc2ccccc2c1C(Nc1ccc(C(=O)NCCC(=O)O)cc1)C1CCCCC1 (stereo not shown) [Example A29, 3-{[(4-{[cyclohexyl(2-ethyl-1-benzofuran-3-yl)methyl]amino}phenyl)carbonyl]amino}propanoic acid]
Second: Cc1c(C(Nc2ccc(C(=O)N(C)CCC(=O)O)cc2)C2CCCCC2)oc2ccccc12 (stereo not shown) [Example A16, 3-{[(4-{[cyclohexyl(3-methyl-1-benzofuran-2-yl)methyl]amino}phenyl)carbonyl](methyl)amino}propanoic acid]
The inhibition at 10 µM of the first is higher: 77% for the first, 74% for the second.

Compared with `Cc1nn(-c2ccc(Cl)cc2)cc1C(Nc1ccc(C(=O)NCCC(=O)O)cc1)C1CCCCC1` (stereo not shown) [Example 19, 3-({[4-({[1-(4-chlorophenyl)-3-methyl-1H-pyrazol-4-yl](cyclohexyl)methyl}amino)phenyl]carbonyl}amino)propanoic acid], `Cc1nn(-c2ccc(C(F)(F)F)cc2)cc1C(Nc1ccc(C(=O)N(C)CCC(=O)O)cc1)C1CCCCC1` (stereo not shown) [Example 28, 3-[({4-[(cyclohexyl{3-methyl-1-[4-(trifluoromethyl)phenyl]-1H-pyrazol-4-yl}methyl)amino]phenyl}carbonyl)(methyl)amino]propanoic acid] is lower in inhibition at 10 µM: 80% for the first, 71% for the second.

Compared with `CCNC(=O)Nc1ccc2oc(C(Nc3ccc(C(=O)N(C)CCC(=O)O)cc3)C3CCCCC3)c(C)c2c1` (stereo not shown) [Example A115, 3-[({4-[(cyclohexyl{5-[(ethylcarbamoyl)amino]-3-methyl-1-benzofuran-2-yl}methyl)amino]phenyl}carbonyl)(methyl)amino]propanoic acid], `Cc1c(C(Nc2ccc(C(=O)N(C)CCC(=O)O)cc2)C2CCCCC2)oc2ccc(C#N)cc12` (stereo not shown) [Example A99, 3-{[(4-{[(5-cyano-3-methyl-1-benzofuran-2-yl)(cyclohexyl)methyl]amino}phenyl)carbonyl](methyl)amino}-propanoic acid] is higher in inhibition at 10 µM: 53% for the first, 80% for the second.

Compared with `COc1c(C(Nc2ccc(C(=O)N(C)CCC(=O)O)cc2)C2CCCCC2)oc2ccc(F)cc12` (stereo not shown) [Example A214, 3-{[(4-{[cyclohexyl(5-fluoro-3-methoxy-1-benzofuran-2-yl)methyl]amino}phenyl)carbonyl](methyl)amino}propanoic acid], `COc1ccc2c(C(Nc3ccc(C(=O)N(C)CCC(=O)O)cc3)C3CCCCC3)c(C)oc2c1` (stereo not shown) [Example A215, 3-{[(4-{[cyclohexyl(6-methoxy-2-methyl-1-benzofuran-3-yl)methyl]amino}phenyl)carbonyl](methyl)amino}propanoic acid] is lower in inhibition at 10 µM: 75% for the first, 72% for the second.

Going from `CN(CCC(=O)O)C(=O)c1ccc(NC(c2cn(-c3ccc(OC(F)(F)F)cc3)nc2OCc2ccccc2)C2CCCCC2)cc1` (stereo not shown) [Example 61, 3-{[(4-{[{3-(benzyloxy)-1-[4-(trifluoromethoxy)phenyl]-1H-pyrazol-4-yl}(cyclohexyl)methyl]amino}phenyl)carbonyl](methyl)amino}-propanoic acid] to `O=C(O)CCNC(=O)c1ccc(NC(c2cn(-c3ccc(OC(F)(F)F)cc3)nc2OCc2ccccc2)C2CCCCC2)cc1` (stereo not shown) [Example 60, 3-{[(4-{[{3-(benzyloxy)-1-[4-(trifluoromethoxy)phenyl]-1H-pyrazol-4-yl}(cyclohexyl)methyl]amino}phenyl)carbonyl]amino}propanoic acid], the inhibition at 10 µM falls from 75% to 71%.

Compared with `Cc1c(C(CC(C)C)Nc2ccc(C(=O)N(C)CCC(=O)O)cc2)oc2ccccc12` (stereo not shown) [Example A24, 3-{methyl[(4-{[3-methyl-1-(3-methyl-1-benzofuran-2-yl)butyl]amino}phenyl)carbonyl]amino}propanoic acid], `Cc1c(C(CC(C)C)Nc2ccc(C(=O)N(C)CCC(=O)O)cc2)sc2ccccc12` (stereo not shown) [Example A32, 3-{methyl[(4-{[3-methyl-1-(3-methyl-1-benzothiophen-2-yl)butyl]amino}phenyl)carbonyl]amino}propanoic acid] is higher in inhibition at 10 µM: 70% for the first, 72% for the second.

First: Cc1c(C(CC(C)C)Nc2ccc(C(=O)NCCC(=O)O)cn2)sc2ccccc12 (stereo not shown) [Example A36, 3-{[(6-{[3-methyl-1-(3-methyl-1-benzothiophen-2-yl)butyl]amino}pyridin-3-yl)carbonyl]amino}propanoic acid]
Second: COc1ccc2oc(C(CC(C)C)Nc3ccc(C(=O)NCCC(=O)O)cc3)c(C)c2c1 (stereo not shown) [Example A92, 3-{[(4-{[1-(5-methoxy-3-methyl-1-benzofuran-2-yl)-3-methylbutyl]amino}phenyl)carbonyl]amino}propanoic acid]
The inhibition at 10 µM of the first is lower: 73% for the first, 76% for the second.

Going from `Cc1noc(C)c1-c1ccc2oc(C(Nc3ccc(C(=O)N(C)CCC(=O)O)cc3)C3CCCCC3)c(C)c2c1` (stereo not shown) [Example A178, 3-[{[4-({cyclohexyl[5-(3,5-dimethylisoxazol-4-yl)-3-methyl-1-benzofuran-2-yl]methyl}amino)phenyl]carbonyl}(methyl)amino]propanoic acid] to `COCCN(C)c1ccc2oc(C(Nc3ccc(C(=O)N(C)CCC(=O)O)cc3)C3CCCCC3)c(C)c2c1` (stereo not shown) [Example A188, 3-[({4-[(cyclohexyl{5-[(2-methoxyethyl)(methyl)amino]-3-methyl-1-benzofuran-2-yl}methyl)amino]phenyl}carbonyl)(methyl)amino]propanoic acid], the inhibition at 10 µM falls from 86% to 77%.

Going from `CCc1nn(-c2cc(F)cc(F)c2)cc1C(Nc1ccc(C(=O)NCCC(=O)O)cc1)C1CCCCC1` (stereo not shown) [Example 88, 3-({[4-({cyclohexyl[1-(3,5-difluorophenyl)-3-ethyl-1H-pyrazol-4-yl]methyl}amino)phenyl]carbonyl}amino)propanoic acid] to `COCc1nn(-c2ccccc2)cc1C(Nc1ccc(C(=O)NCCC(=O)O)cc1)C1CCCCC1` (stereo not shown) [Example 37, 3-({[4-({cyclohexyl[3-(methoxymethyl)-1-phenyl-1H-pyrazol-4-yl]methyl}amino)phenyl]carbonyl}amino)propanoic acid], the inhibition at 10 µM falls from 71% to 70%.

First: Cc1cc(F)ccc1-n1cc(C(Nc2ccc(C(=O)N(C)CCC(=O)O)cc2)C2CCCCC2)c(C)n1 (stereo not shown) [Example 22, 3-[{[4-({[1-(4-fluoro-2-methylphenyl)-3-methyl-1H-pyrazol-4-yl](cyclohexyl)methyl}amino)phenyl]carbonyl}(methyl)amino]-propanoic acid]
Second: Cc1nn(-c2ncc(C(F)(F)F)cc2Cl)cc1C(Nc1ccc(C(=O)NCCC(=O)O)cc1)C1CCCCC1 (stereo not shown) [Example 31, 3-{[(4-{[{1-[3-chloro-5-(trifluoromethyl)pyridin-2-yl]-3-methyl-1H-pyrazol-4-yl}(cyclohexyl)methyl]amino}phenyl)carbonyl]amino}propanoic acid]
The inhibition at 10 µM of the first is lower: 61% for the first, 67% for the second.

Compared with `CC(C)(C)c1nn(-c2ccc(C(F)(F)F)cn2)cc1C(Nc1ccc(C(=O)NCCC(=O)O)cc1)C1CCCCC1` (stereo not shown) [Example 13, 3-{[(4-{[{3-tert-butyl-1-[5-(trifluoromethyl)pyridin-2-yl]-1H-pyrazol-4-yl}(cyclohexyl)methyl]amino}phenyl)carbonyl]amino}propanoic acid], `COc1ccc2nc(C(Nc3ccc(C(=O)NCCC(=O)O)cc3)C3CCCCC3)n(C)c2c1` (stereo not shown) [Example A116, 3-{[(4-{[cyclohexyl(6-methoxy-1-methyl-1H-benzimidazol-2-yl)methyl]amino}phenyl)carbonyl]amino}propanoic acid] is lower in inhibition at 10 µM: 71% for the first, 58% for the second.

Compared with `Cc1c(C(Nc2ccc(C(=O)N(C)CCC(=O)O)nc2)C(C)C)oc2ccc(OCC3CC3)cc12` (stereo not shown) [Example A213, 3-[{[5-({1-[5-(cyclopropylmethoxy)-3-methyl-1-benzofuran-2-yl]-2-methylpropyl}amino)pyridin-2-yl]carbonyl}(methyl)amino]propanoic acid], `Cc1c(C(Nc2ccc(C(=O)NCCC(=O)O)cc2)C2CCCCC2)oc2ccc(C#N)cc12` (stereo not shown) [Example A98, 3-{[(4-{[(5-cyano-3-methyl-1-benzofuran-2-yl)(cyclohexyl)methyl]amino}phenyl)carbonyl]amino}propanoic acid] is higher in inhibition at 10 µM: 70% for the first, 78% for the second.

Work on `O=C(O)CCNC(=O)c1ccc(NC(c2nn(C3CCCCC3)c3ccccc23)C2CCCCC2)cc1` (stereo not shown) [Example A19, 3-{[(4-{[cyclohexyl(1-cyclohexyl-1H-indazol-3-yl)methyl]amino}phenyl)carbonyl]amino}propanoic acid] yielded an inhibition at 10 µM of 71%.

— US8436043B2 (Takeda Pharmaceutical Company Limited, priority 2008, dated 2013)
